Earlier results as cited in patent US12115245B2 (Xiamen University, priority 2019, dated 2024).
Where a SMILES comes first, the peptide text is derived from it.

solubility in water / aqueous solutions | SMILES
very soluble in water | C[C@H](N)C(=O)N[C@@H](CCC(N)=O)C(=O)O [Ala-Gln, L-alanyl-L-glutamine] (H-Ala-Gln-OH)
low solubility in aqueous solutions | NC(=O)CC[C@H](N)C(=O)O [Gln, Glutamine]
